Key:
VSMCs [1] = assay: Transwell insert migration assay; type: cell-based, human; settings: coincubation with 10 ng/mL rCCL2, 12 h
Procedure: VSMCs (75,000 cells/200 μL) were suspended in M231 containing 1% charcoal striped FBS and either 0.1% ethanol (vehicle control) or the corresponding steroids and seeded onto insert wells (transwell filter with 12-μm pores; EMD Millipore). The inserts were then placed in 24-well plates containing 500 μL M231 with 1% charcoal striped FBS. After 12 h, cells remaining on the upper surface of the filter were removed with a cotton swab. Migrated cells were trypsinized, centrifuged, and resuspended in 200 μL of M231 medium. The cell suspensions were mixed with 200 μL 10% ethanol containing 0.4% Trypan blue dye and the live cell number was counted by Countess Automated Cell Counter (Invitrogen). See further details in SI Materials and Methods.
Cultured VSMCs were grown in T-75 cell culture flasks in M231 (Life Technologies) with smooth muscle growth supplement (Life Technologies) with 100 U/mL penicillin, 100 μg/mL streptomycin, 0.25 μg/mL fungizone. Confluent VSMCs were washed twice with 1×PBS to remove residual serum, and then trypsinized, resuspended (75,000 cells per 200 μL per well) in M231 with 1% charcoal striped FBS with 0.1% ethanol (vehicle, control), 10^−7 M MPA (Sigma-Aldrich), 10^−7 M ETO (Organon), or 10^−7 M P4 (Sigma-Aldrich)±rCCL2 (R&D Systems) and seeded on insert wells (transwell filter with 12-μm pores; EMD Millipore), which were then placed in 24-well plates containing 500 μL M231 with 1% charcoal striped FBS. After 12 h, cells remaining on the upper surface of the filter were removed with a cotton swab. Migrated cells attached to the lower surface of each insert or to the surface of lower wells were collected by trypsinization, followed by centrifugation and resuspension in 200 μL of M231 medium. The cell suspensions were mixed with 200 μL 10% ethanol containing 0.4% Trypan blue dye (selectively stains only dead cells blue, whereas live cells with intact cell membranes remain unstained) for 5 min. A mixture of 100 μL M231 and 100 μL 10% ethanol containing 0.4% Trypan blue dye was used as a negative control. To detect live cell numbers, 10 μL of final cell/Trypan blue dye suspension from each treatment condition was pipetted into Countess Cell Counting Chamber Slide and counted by using Countess Automated Cell Counter (Invitrogen). The counting procedure was performed in duplicate.

VSMCs [2] = assay: VSMC proliferation assay by BrdU incorporation; type: cell-based, human; settings: for BrdU incorporation: control 0.86±0.03
Procedure: VSMCs were grown in 96-well plates or 8-well chamber slides and incubated with 10^−7 M of MPA (Sigma-Aldrich) or ETO (Organon) or P4 (Sigma-Aldrich) or vehicle±rCCL2 (R&D Systems)±STAT1 inhibitor, 5′-methyl-thioadenosine (MTA; EMD Millipore) (19) for 48 or 72 h. VSMCs were then analyzed for apoptosis by an ELISA based apoptosis kit (Roche) or cleaved-caspase 3 immunostaining. VSMC proliferation was measured by BrdU incorporation Kit (Cell Signaling). (See further details in SI Materials and Methods).
VSMCs were thawed and cultured in T-75 cell culture flasks in medium 231 (M231; Life Technologies) with smooth muscle growth supplement (5% FBS; 2 ng/mL human basic fibroblast growth factor, 0.5 ng/mL human epidermal growth factor, 5 ng/mL heparin, 0.2 μg/mL insulin and 5 μg/mL BSA; Life Technologies) with 100 U/mL penicillin, 100 μg/mL streptomycin, and 0.25 μg/mL fungizone. Confluent VSMCs were washed twice with 1×PBS to remove residual serum, and then passaged (5,000 cells per well) in 96-well plates and incubated in parallel in M231 with 1% charcoal striped FBS with 0.1% ethanol (vehicle, control), 10^−7 M MPA (Sigma-Aldrich), 10^−7 M ETO (Organon), or 10^−7 M P4 (Sigma-Aldrich)±rCCL2 (monocyte chemotactic protein-1; R&D Systems)±STAT1 inhibitor, 5′-methyl-thioadenosine (MTA; EMD Millipore) for 48 or 72 h.
BrdU (Cell Signaling) 1× in 100-μL M231 was added to each well during the final 24 h of incubation. At the end of 48- or 72-h incubation period, medium was removed and the wells washed twice with ice-cold PBS. VSMC proliferation was measured using BrdU cell proliferation Kit (Cell Signaling) at room temperature. Cells was incubated in 100 μL per well of the fixing/denaturing solution for 30 min, and then replaced by 100 μL per well BrdU detection antibody solution for 1 h. Following three rinses with wash buffer, plates were incubated in HRP-conjugated secondary antibody (100 μL per well) for 30 min. After three additional rinses with wash buffer, tetramethylbenzidine substrate solution (100 μL per well) was added for 20 min and the reaction stopped by adding 100 μL per well STOP solution. Absorbance was measured at 450 nm using Spectra Max190 microplate reader (Molecular Devices) to detect BrdU incorporation in each well.

endometrial VSMCs = assay: αSMA and PCNA double-immunostaining of endometrium of oophorectomized guinea pigs (OVX-GPs); type: in vivo, guinea pig; settings: 21-d time-release pellets, mean±SEM
From the text: After receiving written informed consent at New York University under Institutional Review Board approval, paraffin sections were derived from banked paired endometrial tissues obtained before and after Depo therapy by […] biopsy from each reproductive age woman with regular menstrual cycles during the secretory phase (n=6). Based on an established animal model for LAPC-induced AUB in humans (9), nulliparous adult female pigmented GPs (weighing 525-775 g) were used in experimental procedures conforming to National Health and Medical Research Council Guidelines of Australia and approved by the Animal Ethics Committee of The University of Western Australia. GPs (n=24) were subjected to bilateral OVX and given subcutaneous 21-d time-release pellets (Innovative Research of America) containing MPA (50 mg/d; n=6) or 17β-Estradiol (E2) (0.1 mg/d; n=6), both MPA and E2 (n=6), or no pellets (n=6). On day 20 of exposure to the pellets, GPs were killed with pentobarbital and uterine tissues fixed in 10% formalin and processed for paraffin embedding. In vitro experiments used aortic VSMCs from premenopausal women (n=2) (Life Technologies). Paraffin sections (5 μm) from paired pre- vs. post-Depo treated human or GP endometria were deparaffinized, boiled in citrate buffer (pH: 6.0) and then incubated in methanol containing 3% H2O2. Following 10% normal horse serum blocking (Vector Labs), slides were incubated overnight at 4° C. with mouse anti-PCNA monoclonal antibody (EMD Millipore). After several rinses in Tris-buffered saline containing 0.1% tween-20 (TBS-T; pH 7.6) slides were then incubated with biotinylated anti-mouse IgG (Vector Labs) for 30 min, then with a streptavidin-peroxidase complex (Elite ABC kit; Vector Labs) for 30 min and with diaminobenzidine (DAB; Vector Labs) for 3 min. […] Slides were counterstained by Hematoxylin and evaluated by histological scoring (HSCORE), as described previously (34). (See details for HSCORE evaluation for αSMA immunoreactivity and PCNA quantitation in SI Materials and Methods). Staining intensity for α-SMA was semiquantitatively evaluated by Q:1 HSCORE (1). […] An HSCORE value was determined for each specimen by using the formula HSCORE=ΣPi (i+1), where Pi is the percentage of stained cells in each intensity category (i.e., i=1, 2, or 3). Quantitation of PCNA immunostaining was determined by counting the number of PCNA^+ (brown) and PCNA^- cell nuclei (blue) in VSMCs (αSMA immunostained cells) and obtaining the ratio of numbers of PCNA^+ cell nuclei to total αSMA^+ cells. For each slide, three different fields were evaluated microscopically at 200× magnification. Slides were evaluated at different times by two investigators blinded to tissue source, and the average HSCORE or percentage of cells with PCNA^+ nuclei to total αSMA^+ cells used.

Molecule: rCCL2: recombinant chemokine (C-C motif) ligand 2 (monocyte chemotactic protein-1; R&D Systems)
- effect on inhibition of VSMC migration by ETO (VSMCs [1]): did not reverse
- effect on inhibition of VSMC migration by MPA (VSMCs [1]): partially reversed
- effect on inhibition of VSMC migration by P4 (VSMCs [1]): did not reverse
- effect on inhibition of BrdU incorporation by ETO (VSMCs [2]; 10 ng/mL rCCL2 added to 10^−7 M ETO): reversed
- effect on inhibition of BrdU incorporation by MPA (VSMCs [2]; 10 ng/mL rCCL2 added to 10^−7 M MPA): reversed
- BrdU incorporation (VSMCs [2]; rCCL2 1 ng/mL): 1.05±0.05
- BrdU incorporation (VSMCs [2]; rCCL2 10 ng/mL): 1.21±0.05

Molecule: C[C@]12CC[C@@H]3c4ccc(O)cc4CC[C@H]3[C@@H]1CC[C@@H]2O [E2, 17β-Estradiol]
- PCNA+ endometrial VSMCs (endometrial VSMCs; n=6, control 11.2%±2.3): 36.8%±2.7
- αSMA HSCORE (endometrial VSMCs; n=6, control 135.2±26.0): 212.7±14.6

Molecule: 5′-methyl-thioadenosine [MTA]
- effect on rCCL2 reversal of progestin-inhibited BrdU incorporation (VSMCs [2]; 100 μm MTA with 10 ng/mL rCCL2 and MPA or ETO): abolished
